According to EP1234878A1, “USE OF DISEASE-ASSOCIATED GENE” (Takeda Chemical Industries, Ltd., priority 1999, dated 2001):

Tested on: human CLCA1 protein, SEQ ID NO: 2 (human CLCA1 expressing CHO cells)
Assay: Cl- ion secretion assay using human CLCA1-expressing CHO cells (MEQ fluorescence, ionomycin stimulation)
Assay type: cell-based
Details: anionic transport inhibitor added at 200 µM or 10 µM (FIG. 11), room temperature for 30 minutes, then ionomycin 10 µM; Cl- ion fluorescence indicator MEQ
Experimental: Human CLCA1-expressing plasmid pcDNA-hCLCA1 shown in EXAMPLE 6 was transfected to CHO cells using Gene transfer lyo (manufactured by Wako Pure Chemical Industries, Ltd.) in accordance with the attached manual. The cells were subjected to selective culture for 10 days in MEM-α medium (manufactured by GIBCO BRL) supplemented with 1 mg/ml of neomycin (G418) (manufactured by GIBCO BRL) to obtain the cells grown as human CLCA1 expressing CHO cells. The human CLCA1 expressing CHO cells and parent CHO cells were seeded on a 96-well plate (manufactured by Packard Inc.) coated with 2 µg/ml of fibronectin (manufactured by Itoham Foods, Inc.), respectively, in a concentration of 4 x 10^4 cells/well, followed by culturing at 37°C for 24 hours under 5% CO2. After completion, the culture solution was washed once with a buffer solution containing no Cl^- ions (2.4 mM K2HPO4, 0.6 mM KH2PO4, 10 mM D-glucose, 1 mM MgSO4, 1 mM CaSO4, 135 mM NaNO3, 10 mM HEPES, pH 7.4), and 1 mM of Cl^- ion fluorescence indicator 6-methoxy-N-ethylquinolinium iodide (MEQ, manufactured by Moelcular Probes, Inc.) was added in an amount of 100 µl/well to the culture solution, followed by incubation at 37°C for further 2 hours. The culture solution was further washed twice with a Cl^- ion-containing buffer solution (2.4 mM K2HPO4, 0.6 mM KH2PO4, 10 mM D-glucose, 1 mM MgSO4, 1 mM CaSO4, 135 mM NaCl, 10 mM HEPES, pH 7.4), and then allowed to stand at room temperature for 30 minutes. Each well was replaced by the buffer solution containing no Cl^- ions and ionomycin was added to make the concentration of 10 µM. Immediately thereafter, the fluorescence intensity was measured at an excited wavelength of 355 nm and a measurement wavelength of 460 nm, usingamulti-label counter Wallac1420ARVOsx (manufactured by Amersham Pharmacia Biotech).
When stimulated with 10 µM ionomycin (manufactured by Wako Pure Chemical Industries, Inc.), the fluorescence intensity increased in human CLCA1 expressing CHO cells by about twice, as compared to the parent CHO cells (FIG. 10). […]

Compound	increase of the fluorescence intensity by ionomycin stimulation of human CLCA1 expressing CHO cells
O[C@H](CS)[C@H](O)CS (racemic) [dithiothreitol]	suppressed
O=S(=O)(O)c1cc(N=C=S)ccc1C=Cc1ccc(N=C=S)cc1S(=O)(=O)O [4,4'-diisothiocyanastilbene-2,2'-disulfonic acid]	suppressed
O=C(O)c1cccnc1Nc1cccc(C(F)(F)F)c1 [niflumic acid]	suppressed
